{
  "source": "patent US20230027495A1",
  "about": "“METHODS OF TREATING CANCER WITH A COMBINATION OF AN ANTI-PD-1 ANTIBODY AND AN ANTI-TISSUE FACTOR ANTIBODY-DRUG CONJUGATE” (Genmab A/S, priority 2019, published 2023)",
  "key": {"[1]": {"tested_on": "HeLa cells", "assay": "Western blot of ER stress (IRE1 and JNK phosphorylation) in MMAE-treated HeLa cells", "type": "cell-based", "settings": "100 nM MMAE, 16 hours", "experimental": "HeLa cells, a cervical cancer cell line, were cultured in Minimum Essential Medium (MEM) with 10% FBS, 10 mM HEPES, 1 mM sodium pyruvate, 2 mM L-glutamine, penicillin (100U/ml), and streptomycin (100 μg/ml). HeLa cells were treated with 100 nM MMAE for 16 hours and harvested in radioimmunoprecipitation assay buffer (RIPA) buffer for western blot analysis. Treatment with MMAE led to phosphorylation of the serine threonine kinase IRE1, indicating activation of ER stress. Severe ER stress is a prerequisite to the exposure of pro-phagocytic signals on the surface of tumor cells, and can be indicated by activation of JNK signaling by phosphorylated IRE1."}, "[2]": {"tested_on": "HeLa cells", "assay": "Imaging of RFP-tubulin microtubule network and ER in HeLa cells in the presence of MMAE", "type": "cell-based", "settings": "100 nM MMAE", "experimental": "HeLa cells were transduced with a baculovirus encoding RFP-labeled Tubulin (CellLight Tubulin-RFP, ThermoFisher Scientific) and an ER-binding dye (ER-ID Green, Enzo Life Sciences). Cells were treated with 100 nM MMAE and imaged over time in the present of MMAE. Within 2 hours, fragmentation and disassembly of the microtubule network became evident, concurrent with the breakdown of the perinuclear organized ER lattice (FIGS. 2A and 2B). The condensed and mislocalized ER skeleton indicated severe ER stress within 8 hours."}, "[3]": {"tested_on": "HeLa cells", "assay": "ATP and HMGB1 secretion from MMAE-treated HeLa cells", "type": "cell-based", "settings": "100 nM MMAE, over 24 hours, vs untreated cells", "excerpt": "Induction of ICD is also characterized by the secretion of ATP and HMGB1. Extracellular ATP serves as a strong chemotactic signal, promoting immune cell migration to the tumor site. Upon arrival, extracellular HMGB1 signals through various pro-inflammatory receptors (TLR2, TLR4, RAGE) to activate antigen-presenting cells, thereby promoting immune activity within the tumor."}, "[4]": {"tested_on": "murine tumor cells that stably express human TF", "assay": "Immunization of Balb/c mice with drug-killed human TF positive murine tumor cells, then tumor challenge (syngeneic model)", "type": "in vivo", "settings": "mice immunized with drug-killed human TF positive tumor cells", "experimental": "Mouse tumor cells are transfected with plasmid constructs encoding human tissue factor (TF) and sgRNA-guided Cas9 nuclease (sgRNA/Cas9) to generate a murine cell line that expresses the human TF. Fluorescence activated cell sorting (FACS) yields a clonal population of murine tumor cells that stably express human TF, these cells are then treated with 1 μg to 5 μg per ml of tisotumab vedotin or 100 nM of MMAE for 4 days. In order to prepare dying cells for immunization, treated murine tumor cells are overlaid atop Histopaque, and centrifuged at 2000 g for 30 minutes. Dead and dying cells are pelleted underneath the Histopaque layer, and viability assessed by trypan blue exclusion. A sample with approximately <20% live cells as measured by trypan blue exclusion is obtained. Flash-frozen tumor cells are prepared by submerging the cells in liquid nitrogen for 10 seconds, followed by immersion in 37° C. water until completely thawed. The liquid nitrogen freeze-thaw process is repeated 5 times. Dead and dying human TF positive tumor cells are resuspended in phosphate buffered saline (PBS) and 2×10^6 cells are injected into the peritoneum of immune-competent Balb/c mice. Seven days later, mice receive a second immunization with dead and dying cells prepared in the same manner.\nFourteen days after initial immunization with the dead and dying human TF positive tumor cells, mice are subcutaneously implanted with 5×10^6 wild-type tumor cells and monitored for tumor growth. […] As these effects occur in the absence of any administered therapeutic agent, the administration of cells killed by tisotumab vedotin or MMAE is sufficient to generate long-lasting protective immune memory against subsequent tumor cell challenge. Protective immune memory is amplified by treating these mice with tisotumab vedotin in combination with an antibody that binds to murine PD-1."}, "[5]": {"tested_on": "Tissue Factor positive cell lines", "assay": "Cell death and ATP/HMGB1 release from Tissue Factor positive cell lines", "type": "cell-based", "settings": "Tissue Factor positive cells", "excerpt": "Auristatin ADC payloads disrupt the microtubule networks resulting in altered ER localization and function, which ultimately results in ER stress."}, "[6]": {"tested_on": "HPAFII (pancreatic carcinoma) and MDA-MB-231 (breast carcinoma) cells", "assay": "Western blot of ER stress pathways in HPAFII and MDA-MB-231 cells", "type": "cell-based", "experimental": "Induction of cell death and release of ICD danger signals occurs concomitant with initiation of an ER stress response. Two Tissue Factor positive cell lines, HPAFII (pancreatic carcinoma) and MDA-MB-231 (breast cell carcinoma) were exposed to tisotumab vedotin ADC, an Isotype-MMAE ADC (H00-MMAE, IgG1 MMAE), or free MMAE for 18 hours and induction of ER stress monitored by western blot analysis. Phosphorylation of inositol-requiring transmembrane kinase/endonuclease 1 (IRE1) was detected after treatment with tisotumab vedotin ADC or MMAE free drug (FIG. 6). […] The ability for auristatins to prime the immune system to recognize tumor antigens opens the door for a myriad of combinatorial therapeutic options."}, "[7]": {"tested_on": "human peripheral blood mononuclear cells (PBMCs)", "assay": "Monocyte/macrophage activation in human PBMCs fed drug-killed MDA-MB-231 cells", "type": "cell-based", "excerpt": "FIGS. 7A and 7B is a series of graphs in which Tissue Factor positive MDA-MB-231 cells killed with various agents were fed to human peripheral blood mononuclear cells (PBMCs) and immune activation assessed by increased expression of activations markers on innate CD14+ monocyte/macrophages and induction of chemokine and cytokine production.\nImmunogenic cell death, as mediated by MMAE, is regulated cell death that activates adaptive immune responses against antigens from dead and dying tumor cells, and allows for the generation of robust innate immune cell activation and subsequent cytotoxic T cell responses targeted towards specific tumor cell antigens. […] Furthermore, these monocyte/macrophages conditioned by ICD-killed cells promote activation of T cells, as evidenced by production of signature inflammatory cytokines associated with cytotoxic T cell responses."}, "[8]": {"tested_on": "human peripheral blood mononuclear cells (PBMCs)", "assay": "T cell activation in CSFE labeled human PBMCs fed drug-killed MDA-MB-231 cells, with or without pembrolizumab", "type": "cell-based", "excerpt": "Induction of the innate immune response following exposure to cancer cells undergoing ICD sets up secondary T cell activation, which can be enhanced by concomitant pembrolizumab treatment."}, "[9]": {"tested_on": "MDA-MB-231 xenograft", "assay": "MDA-MB-231 xenograft model in humanized NSG mice", "type": "in vivo", "settings": "pembrolizumab alone, first dose 10 mg/kg, then 5 mg/kg every five days, IP", "experimental": "The in vivo anti-tumor efficacy of tisotumab vedotin in combination with an anti-PD-1 monoclonal antibody was evaluated in NOD.Cg-PrkdC^scid Il2rg^tm1Wj1/SzJ (NSG) immunodeficient mice (The Jackson Laboratory, Stock No. 005557), humanized by engraftment with human CD34^+ hematopoietic stem cells (Jackson Laboratories, Sacramento). Mice were subcutaneously inoculated with 5×10^6 MDA-MB-231 cells (breast adenocarcinoma; American Tissue Culture Collection (ATCC), cat. no. HTB-26), in 100 μL phosphate-buffered saline (PBS). Before inoculation, cells were cultured in DMEM with high glucose and HEPES without L-glutamine (Lonza, cat. no. BE12-709F), 10% (v/v) donor bovine serum with iron New Zealand Origin (Thermo Fisher Scientific, DBSI, cat. no. 10371-029), 2 mM L-glutamine (Lonza, cat. no. BE17-605E), 1 mM Na-pyruvate (Lonza, cat. no. BE13-115E), MEM non-essential amino acids (Life Technologies, cat. no. 11140) and 1% (v/v) penicillin/streptomycin (Lonza, cat. no. DE17-603E), in CellSTACK culture chambers (Corning, cat. no. 3313).\nTumor size was determined by caliper measurement at least two times a week and tumor volume was calculated as 0.52×length×width^2. When tumors reached the size of 100 mm^3 mice were randomized in 7 groups (8 mice per treatment group) based on mouse cohort and tumor size (Table 1). Mice were treated with tisotumab vedotin alone (1 mg/kg or 0.5 mg/kg), intravenously, weekly for a maximum of five treatments, or in combination with an anti-PD-1 antibody (i.e., pembrolizumab, KEYTRUDA®, 50 mg concentrate, Merck & Co., Inc., Kenilworth, N.J. USA) or with anti-PD-1 antibody alone. The first dose of the anti-PD-1 antibody (i.e., pembrolizumab) was 10 mg/kg, followed by 5 mg/kg every five days for a maximum of six treatments. Mice in control groups were administered 1 mg/kg of IgG1 isotype control antibody or IgG1 isotype control antibody conjugated to MMAE intravenously, weekly for a maximum of five treatments (Table 1). The IgG1 isotype control antibody is the b12 antibody which is known to bind to HIV-1 gp120. […]"}, "[10]": {"tested_on": "cervical cancer", "settings": "cited from earlier work"}, "[11]": {"settings": "managed with interruptions of pembrolizumab, corticosteroids and/or other supportive care; cited from earlier work"}, "[12]": {"settings": "HPAFII and MDA-MB-231 cells, 18 hours"}, "[13]": {"settings": "PBMCs fed drug-exposed MDA-MB-231 cells, 48 hours"}},
  "note": "“Also recorded” adds a separate entry of the source. Non-standard residues stand in square brackets, D forms with d. Residues, ends and D or L forms follow the SMILES beside them. *: point of attachment. Dolaproine = CO[C@@H]([C@@H]1CCCN1)[C@@H](C)C(=O)O; Dil = CC[C@H](C)[C@H](NC)[C@@H](CC(=O)O)OC; X1 = C[C@@H](N*)[C@@H](O)c1ccccc1; NMeV = CN[C@H](C(=O)O)C(C)C",
  "data": [
    {"compound": "CC[C@H](C)[C@@H]([C@@H](CC(=O)N1CCC[C@H]1[C@H](OC)[C@@H](C)C(=O)N[C@H](C)[C@@H](O)c1ccccc1)OC)N(C)C(=O)[C@@H](NC(=O)[C@@H](NC)C(C)C)C(C)C", "note": "[MMAE, Monomethyl auristatin E, reference compound] (H-[NMeV]V[Dil][Dolaproine]-X1)", "values": [
      {"measurement": "phosphorylation of IRE1 and JNK (ER stress)", "setting": "[1]", "value": "led to phosphorylation of both IRE1 and JNK; also recorded: elicited severe ER stress by phosphorylation of IRE1 and JNK"},
      {"measurement": "microtubule network and ER localization", "setting": "[2]", "value": "led to disassembly of the microtubule network and subsequent ER mislocalization"},
      {"measurement": "time to fragmentation and disassembly of the microtubule network and breakdown of the ER lattice", "setting": "[2]", "value": "≤ 2", "unit": "h"},
      {"measurement": "time to severe ER stress (condensed and mislocalized ER skeleton)", "setting": "[2]", "value": "≤ 8", "unit": "h"},
      {"measurement": "secretion of ATP", "setting": "[3]", "value": "increased secretion"},
      {"measurement": "secretion of HMGB1", "setting": "[3]", "value": "increased secretion"},
      {"measurement": "survival after challenge with wild-type tumor cells", "setting": "[4]", "value": "increased survival"},
      {"measurement": "tumor growth after challenge with wild-type tumor cells", "setting": "[4]", "value": "delayed tumor growth"},
      {"measurement": "ATP secretion/release", "setting": "[5]", "value": "drove robust A) ATP secretion; also recorded: specific to tisotumab vedotin ADC and MMAE treatment"},
      {"measurement": "HMGB1 release", "setting": "[5]", "value": "HMGB1 release; also recorded: specific to tisotumab vedotin ADC and MMAE treatment"},
      {"measurement": "activation of JNK (phosphorylation)", "setting": "[6]; [12]", "value": "increased phosphorylation"},
      {"measurement": "activation of PERK pathway (ATF4 cleavage)", "setting": "[6]; [12]", "value": "upregulation of ATF4 cleavage"},
      {"measurement": "phosphorylation of IRE1", "setting": "[6]; [12]", "value": "detected"},
      {"measurement": "activation of ER stress pathways (phosphorylation of IRE and JNK, cleavage of ATF4)", "setting": "[6]; HPAFII or MDA-MB-231 cells, 16 hours", "value": "trigger multiple ER stress pathways"},
      {"measurement": "monocyte/macrophage activation by CD86 expression", "setting": "[7]; CD14+ monocyte/macrophages, flow cytometry, PBMCs fed killed MDA-MB-231 cells, compared to IgG1-MMAE ADC or tisotumab alone", "value": "drove monocyte/macrophage activations"},
      {"measurement": "release of innate chemokines", "setting": "[7]; PBMCs fed killed MDA-MB-231 cells, compared to IgG1-MMAE ADC or tisotumab alone", "value": "induced release of innate chemokines including MIP10"},
      {"measurement": "chemotactic and inflammatory mediators from monocyte/macrophages", "setting": "[7]; after uptake of killed Tissue Factor positive cells", "value": "elicit strong chemotactic and inflammatory mediators"},
      {"measurement": "T cell proliferation (CSFE dilution)", "setting": "[8]; [13]", "value": "drove T cell proliferation"},
      {"measurement": "production of IFNγ", "setting": "[8]; [13]", "value": "increased; also recorded: production of T cell specific cytokines"},
      {"measurement": "production of IL12p70", "setting": "[8]; [13]", "value": "increased; also recorded: production of T cell specific cytokines"}
    ]},
    {"compound": "pembrolizumab: anti-PD-1 monoclonal antibody, checkpoint inhibitor, also known as KEYTRUDA® [reference compound]", "values": [
      {"measurement": "tumor burden as assessed by tumor volume", "setting": "[9]", "value": "hardly reduced tumor burden"},
      {"measurement": "T cell proliferation driven by tisotumab vedotin or MMAE killed cells, effect of added pembrolizumab", "setting": "[8]; 2 mg/ml of pembrolizumab, 48 hours", "value": "enhanced"},
      {"measurement": "cytokine production after tisotumab vedotin or MMAE killed cells, effect of concomitant pembrolizumab", "setting": "[8]; IL12p70 and IFNγ, 48 hours", "value": "increased"},
      {"measurement": "secondary T cell responses after tisotumab vedotin induced ICD, effect of pembrolizumab", "setting": "[8]; concomitant pembrolizumab treatment", "value": "can be amplified"},
      {"measurement": "objective response rate", "setting": "[10]; 200 mg Q3W, 82 patients with previously treated, advanced cervical cancer", "value": 12, "unit": "%"},
      {"measurement": "objective response rate (ORR)", "setting": "[10]; 2L+ PD-L1-positive recurrent or metastatic cervical cancer, 42% previously treated with bevacizumab", "value": 14, "unit": "%"},
      {"measurement": "reversibility of immune-related AEs (irAEs)", "setting": "[11]", "value": "most irAEs were reversible"}
    ]}
  ]
}
